Results from patent US8084645B2, “4-phenylamino-benzaldoxime derivatives and uses thereof as mitogen-activated protein kinase kinase (MEK) inhibitors” (Chugai Seiyaku Kabushiki Kaisha, priority 2003, dated 2011).
In brackets after ≈: the same amount, converted by molar mass.

Columns and labels:
[1] = tested on: Human colon cancer cell line HT-29; experiment: Determination of the activity of inhibiting cell proliferation (Cell Counting Kit-8); assay type: cell-based; details: HT-29, 96 h, HT29, 2,000 cells/well, incubated four days, read-out: Cell proliferation inhibitory activity (HT29) IC50
Protocol: Human colon cancer cell line HT-29, obtained from American Type Culture Collection (VA, USA), and human non-small cell lung cancer cell line QG56, obtained from Immuno-Biological Laboratories Co., Ltd., were plated at 2,000 cells/well in a 96-well culture plate, and incubated for four days after addition of a MEK inhibitor of a given concentration.

[2] = Determination of stability against mouse liver microsomes; assay type: in vitro ADME; details: mouse liver microsomes 1 mg protein/mL, 2 mM NADPH, pH 7.4, 37 C; read-out: Stability against mouse liver microsome NADPH+ T1/2
Protocol: (§1) The enzyme reaction was quenched with three volumes of acetonitrile, and the reaction mixture was centrifuged at 1,500 rpm for ten minutes to provide a supernatant as a sample to be measured. Stability against mouse liver microsomes was measured using HPLC/MS to determine the compounds in the sample.

[3] = Determination of stability against human liver microsomes; assay type: in vitro ADME; details: human liver microsomes 1 mg protein/mL, 2 mM NADPH, pH 7.4, 37 C; read-out: Stability against human liver microsome NADPH+ T1/2
Protocol: as §1, with “human” for “mouse”

[4] = Determination of water solubility (equilibrium stirring method); assay type: physicochemical; details: 50 mM phosphate buffer pH 6.5, room temperature (20 C); for solubility at 2 h: aqueous buffer, thermodynamic from solid, read-out: Water solubility (LySA PH 6.5)
Protocol: The vessels were sealed, and the contents were sonicated at room temperature (20° C.) for ten minutes, and then stirred with a stirrer for two hours. After reaching solution equilibrium, the solution was separated with a membrane filter, and the solute concentration was determined using HPLC.

[5] = biological target: MEK (Homo sapiens, UniProt Q02750); experiment: Determination of MEK inhibitory activities (Raf-1 kinase cascade assay, MBP phosphorylation, 33P-ATP)
Chain of MEK (Q02750 whole entry): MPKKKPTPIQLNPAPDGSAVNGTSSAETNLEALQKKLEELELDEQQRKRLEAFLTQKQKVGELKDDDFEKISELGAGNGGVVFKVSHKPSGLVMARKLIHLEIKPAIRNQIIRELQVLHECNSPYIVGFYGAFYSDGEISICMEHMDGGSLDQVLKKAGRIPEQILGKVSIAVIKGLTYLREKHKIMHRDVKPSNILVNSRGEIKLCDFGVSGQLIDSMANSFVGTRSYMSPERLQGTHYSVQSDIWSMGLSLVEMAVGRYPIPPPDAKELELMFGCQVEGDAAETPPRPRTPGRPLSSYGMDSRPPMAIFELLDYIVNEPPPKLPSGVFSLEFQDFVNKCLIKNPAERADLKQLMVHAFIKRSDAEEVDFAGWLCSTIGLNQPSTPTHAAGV
Text: The radioisotope used was [γ^33P]-ATP (Amersham Biosciences, K.K.).

Compound | IC50 [1] [nM] | half-life [2] [h] | half-life [3] [h] | solubility at 2 h [4] [µM] | IC50 [5] [nM] | Water solubility (LySA PH 6.5) [4] [µM]
O=C(NOCCO)c1cc(/C=N/OCCN2CCOCC2)c(F)c(F)c1Nc1ccc(I)cc1F [Compound 18, (E)-3,4-difluoro-2-(2-fluoro-4-iodo-phenylamino)-N-(2-hydroxy-ethoxy)-5-[(2-morpholin-4-yl-ethoxyimino)-methyl]-benzamide] | 140 | > 6 | > 6 | 164 (≈ 99.8 µg/mL) | 262 | 
CC(C)(CO)CO/N=C/c1cc(C(=O)NOCCO)c(Nc2ccc(I)cc2F)c(F)c1F [Compound 34, (E)-3,4-difluoro-2-(2-fluoro-4-iodo-phenylamino)-5-[(E)-(3-hydroxy-2,2-dimethyl-propoxyimino)-methyl]-N-(2-hydroxy-ethoxy)-benzamide] | 143 |  |  | < 7.8 | 69 | 
CNCCO/N=C/c1cc(C(=O)NOCCO)c(Nc2ccc(I)cc2F)c(F)c1F [Compound 23, (E)-3,4-difluoro-2-(2-fluoro-4-iodo-phenylamino)-N-(2-hydroxy-ethoxy)-5-[(2-methylamino-ethoxyimino)-methyl]-benzamide] | 88 |  |  |  | 85 | 
COC(C)(C)CCO/N=C/c1cc(C(=O)NOCCO)c(Nc2ccc(I)cc2F)c(F)c1F [Compound 37, (E)-3,4-difluoro-2-(2-fluoro-4-iodo-phenylamino)-N-(2-hydroxy-ethoxy)-5-[(3-methoxy-3-methyl-butoxyimino)-methyl]-benzamide] | 600 |  |  |  | 287 | 
O=C(NOCCO)c1cc(/C=N/OCCCCO)c(F)c(F)c1Nc1ccc(I)cc1F [Compound 36, (E)-3,4-difluoro-2-(2-fluoro-4-iodo-phenylamino)-5-[(4-hydroxy-butoxyimino)-methyl]-N-(2-hydroxy-ethoxy)-benzamide] | 365 |  |  | < 7.8 | 45 | 
O=C(NOCCO)c1cc(/C=N/OCCN2CCCCC2)c(F)c(F)c1Nc1ccc(I)cc1F [Compound 17, (E)-3,4-difluoro-2-(2-fluoro-4-iodo-phenylamino)-N-(2-hydroxy-ethoxy)-5-[(2-piperidin-1-yl-ethoxyimino)-methyl]-benzamide] | 920 | > 6 |  | 462 (≈ 280 µg/mL) | 287 | 
CC(C)(O)CO/N=C/c1cc(C(=O)NOCCO)c(Nc2ccc(I)cc2F)c(F)c1F [Compound 12, (E)-3,4-difluoro-2-(2-fluoro-4-iodophenylamino)-N-(2-hydroxy-ethoxy)-5-[(2-hydroxy-2-methyl-propoxyimino)-methyl]-benzamide] | < 19.5 | > 6 |  |  | 37 | 15
CO/N=C/c1cc(C(=O)NOCCO)c(Nc2ccc(I)cc2F)c(F)c1F [Compound 31, (E)-3,4-difluoro-2-(2-fluoro-4-iodo-phenylamino)-N-(2-hydroxy-ethoxy)-5-[methoxyimino-methyl]-benzamide] | 463 |  |  |  | 335 | 
O=C(NOCCO)c1cc(/C=N/OCc2cnc[nH]2)c(F)c(F)c1Nc1ccc(I)cc1F [Compound 29, (E)-3,4-difluoro-2-(2-fluoro-4-iodo-phenylamino)-N-(2-hydroxy-ethoxy)-5-[(3H-imidazol-4-ylmethoxyimino)-methyl]-benzamide] | 165 |  |  |  | 576 | 
O=C(NOCCO)c1cc(/C=N/OCc2ccncc2)c(F)c(F)c1Nc1ccc(I)cc1F [Compound 30, (E)-3,4-difluoro-2-(2-fluoro-4-iodo-phenylamino)-N-(2-hydroxy-ethoxy)-5-[(pyridin-4-ylmethoxyimino)-methyl]-benzamide] | 790 | > 6 |  | < 31.3 | 88 | 
CC(C)O/N=C/c1cc(C(=O)NOCCO)c(Nc2ccc(I)cc2F)c(F)c1F [Compound 32, (E)-3,4-difluoro-2-(2-fluoro-4-iodo-phenylamino)-N-(2-hydroxy-ethoxy)-5-[isopropoxyimino-methyl]-benzamide] | 84 |  |  |  | 1250 | 
CNC(=O)CCO/N=C/c1cc(C(=O)NOCCO)c(Nc2ccc(I)cc2F)c(F)c1F [Compound 14, (E)-3,4-difluoro-2-(2-fluoro-4-iodo-phenylamino)-N-(2-hydroxy-ethoxy)-5-[(2-methylcarbamoyl-ethoxyimino)-methyl]-benzamide] | 38 | 0.767 |  | 14 (≈ 8.12 µg/mL) | 9.7 | 
CC(C)(O)CO/N=C\c1cc(C(=O)NOCCO)c(Nc2ccc(I)cc2F)c(F)c1F [Compound 51, (Z)-3,4-Difluoro-2-(2-fluoro-4-iodo-phenylamino)-N-(2-hydroxy-ethoxy)-5-[(2-hydroxy-2-methyl-propoxyimino)-methyl]-benzamide] | 6 |  |  | < 7.8 | 21 | 
CC(C)(O)CCO/N=C/c1cc(C(=O)NOCCO)c(Nc2ccc(I)cc2F)c(F)c1F [Compound 33, (E)-3,4-difluoro-2-(2-fluoro-4-iodo-phenylamino)-N-(2-hydroxy-ethoxy)-5-[(3-hydroxy-3-methyl-butoxyimino)-methyl]-benzamide] | 275 |  |  | < 7.8 | 37.5 | 

Results, then the compound that gave them:

IC50 [1] [nM] | half-life [2] [h] | half-life [3] [h] | solubility at 2 h [4] [µM] | IC50 [5] [nM] | Water solubility (LySA PH 6.5) [4] [µM] | Compound
13 | 2.03 | 0.603 | 301 (≈ 132 µg/mL) | 51 |  | C#Cc1ccc(Nc2c(C(=O)NOCCO)cc(/C=N\OCCO)c(F)c2F)c(F)c1 [Compound 48, (Z)-2-(4-ethynyl-2-fluoro-phenylamino)-3,4-difluoro-N-(2-hydroxy-ethoxy)-5-[(2-hydroxy-ethoxyimino)-methyl]-benzamide]
20 |  |  |  | 78 |  | O=C(NOCCO)c1cc(/C=N\OCCN2CCCC2=O)c(F)c(F)c1Nc1ccc(I)cc1F [Compound 60, (Z)-3,4-difluoro-2-(2-fluoro-4-iodo-phenylamino)-N-(2-hydroxy-ethoxy)-5-{[2-(2-oxo-pyrrolidin-1-yl)-ethoxyimino]-methyl}-benzamide]
77 | > 6 | > 6 | 57 (≈ 32.3 µg/mL) | 119 |  | CNC(=O)CO/N=C/c1cc(C(=O)NOCCO)c(Nc2ccc(I)cc2F)c(F)c1F [Compound 43, (E)-3,4-difluoro-2-(2-fluoro-4-iodo-phenylamino)-N-(2-hydroxy-ethoxy)-5-[methylcarbamoylmethoxyimino-methyl]-benzamide]
27 | > 6 | 1.49 |  | 67 |  | CS(=O)(=O)CCO/N=C/c1cc(C(=O)NOCCO)c(Nc2ccc(I)cc2F)c(F)c1F [Compound 40, (E)-3,4-difluoro-2-(2-fluoro-4-iodo-phenylamino)-N-(2-hydroxy-ethoxy)-5-[(2-methanesulfonyl-ethoxyimino)-methyl]-benzamide]
476 |  |  |  | 395 |  | COCCO/N=C/c1cc(C(=O)NOCCO)c(Nc2ccc(I)cc2F)c(F)c1F [Compound 38, (E)-3,4-difluoro-2-(2-fluoro-4-iodo-phenylamino)-N-(2-hydroxy-ethoxy)-5-[(2-methoxy-ethoxyimino)-methyl]-benzamide]
114 |  |  | < 7.8 | 232 |  | CSCCO/N=C/c1cc(C(=O)NOCCO)c(Nc2ccc(I)cc2F)c(F)c1F [Compound 39, (E)-3,4-difluoro-2-(2-fluoro-4-iodo-phenylamino)-N-(2-hydroxy-ethoxy)-5-[(2-methylsulfanyl-ethoxyimino)-methyl]-benzamide]
203 |  |  | < 7.8 | 30.4 |  | O=C(NOCCO)c1cc(/C=N/OCC2(CO)CC2)c(F)c(F)c1Nc1ccc(I)cc1F [Compound 35, (E)-3,4-difluoro-2-(2-fluoro-4-iodo-phenylamino)-N-(2-hydroxy-ethoxy)-5-[(1-hydroxymethyl-cyclopropylmethoxyimino)-methyl]-benzamide]
17 |  |  | 69 (≈ 41.9 µg/mL) | 50 |  | O=C(NOCCO)c1cc(/C=N\OCCN2CCNC2=O)c(F)c(F)c1Nc1ccc(I)cc1F [Compound 59, (Z)-3,4-difluoro-2-(2-fluoro-4-iodo-phenylamino)-N-(2-hydroxy-ethoxy)-5-{[2-(2-oxo-imidazolidin-1-yl)-ethoxyimino]-methyl}-benzamide]
1.9 |  |  | < 7.8 | 17 |  | CS(=O)(=O)CCO/N=C\c1cc(C(=O)NOCCO)c(Nc2ccc(I)cc2F)c(F)c1F [Compound 53, (Z)-3,4-Difluoro-2-(2-fluoro-4-iodo-phenylamino)-N-(2-hydroxy-ethoxy)-5-[(2-methanesulfonyl-ethoxyimino)-methyl]-benzamide]
103 |  |  |  | 107 |  | O=C(NOCCO)c1cc(/C=N/OCCOCCO)c(F)c(F)c1Nc1ccc(I)cc1F [Compound 46, (E)-3,4-difluoro-2-(2-fluoro-4-iodo-phenylamino)-N-(2-hydroxy-ethoxy)-5-{[2-(2-hydroxy-ethoxy)-ethoxyimino]-methyl}-benzamide]
